# Results published in the NIST ThermoML archive (doi:10.1021/je200922s).
# ± gives the expanded uncertainty stated by the source.
# Settings: 101.33 kPa, Liquid; for viscosity: Capillary tube (Ostwald / Ubbelohde) method; for mass density: Vibrating tube method
viscosity (293.15 K) [mPa·s],mass density (293.15 K) [kg/m3],viscosity (298.15 K) [mPa·s],mass density (298.15 K) [kg/m3],viscosity (303.15 K) [mPa·s],mass density (303.15 K) [kg/m3],viscosity (308.15 K) [mPa·s],mass density (308.15 K) [kg/m3],viscosity (313.15 K) [mPa·s],mass density (313.15 K) [kg/m3],viscosity (318.15 K) [mPa·s],mass density (318.15 K) [kg/m3],viscosity (323.15 K) [mPa·s],mass density (323.15 K) [kg/m3],SMILES
1.811 ± 0.074,1032.31 ± 0.26,1.667 ± 0.068,1027.96 ± 0.25,1.543 ± 0.063,1023.52 ± 0.25,1.437 ± 0.059,1019.06 ± 0.25,1.343 ± 0.055,1014.61 ± 0.24,1.258 ± 0.051,1010.14 ± 0.24,1.184 ± 0.048,1005.68 ± 0.24,CN1CCCC1=O [N-methylpyrrolidone]
1.189 ± 0.048,789.831 ± 0.12,1.095 ± 0.044,785.535 ± 0.13,1.003 ± 0.041,781.22 ± 0.13,0.914 ± 0.037,776.875 ± 0.13,0.845 ± 0.034,772.48 ± 0.13,0.765 ± 0.031,768.042 ± 0.14,0.704 ± 0.029,762.564 ± 0.14,CCO [ethanol]

SMILES,viscosity (293.15 K) [mPa·s],mass density (293.15 K) [kg/m3],viscosity (298.15 K) [mPa·s],mass density (298.15 K) [kg/m3],viscosity (303.15 K) [mPa·s],mass density (303.15 K) [kg/m3],viscosity (308.15 K) [mPa·s],mass density (308.15 K) [kg/m3],viscosity (313.15 K) [mPa·s],mass density (313.15 K) [kg/m3],viscosity (318.15 K) [mPa·s],mass density (318.15 K) [kg/m3],viscosity (323.15 K) [mPa·s],mass density (323.15 K) [kg/m3]
CCn1cc[n+](C)c1.O=S(=O)([N-]S(=O)(=O)C(F)(F)F)C(F)(F)F,40.24 ± 1.6,1523.28 ± 0.7,33.36 ± 1.4,1518.25 ± 0.69,28.1 ± 1.1,1513.23 ± 0.69,23.93 ± 0.98,1508.2 ± 0.69,20.66 ± 0.85,1503.16 ± 0.68,17.98 ± 0.73,1498.19 ± 0.68,15.8 ± 0.65,1493.33 ± 0.67
